Common to all, as to type: cell-based, human
The test system of test [1] is TNF-α. In words: Inhibition of IFN-γ/SAC-induced TNF-α production in THP-1 cells after pre-incubation (ELISA). The following applies: for induction of TNF-α production in the IFN-γ/SAC assay / inhibition of TNF-α production induced by IFN-γ/SAC: 5 μM, FIG. 12; for inhibition of TNF-α response induced by IFN-γ/SAC: FIG. 11A; for inhibition of the cytokine response (TNF-α) induced by IFN-γ/SAC: general statement, no concentration given. On the technique in general: ELISA stands for enzyme-linked immunosorbent assay.

In test [2] the test system is IL-12p70. As to the kind of experiment: Inhibition of IFN-γ/SAC-induced IL-12p70 production in THP-1 cells after pre-incubation (ELISA). The following applies: for inhibition of IL-12p70 production induced by IFN-γ/SAC: 5 μM, FIG. 13; for inhibition of IL-12p70 response induced by IFN-γ/SAC: 10 or 100 μg/mL, FIG. 11B; for inhibition of the cytokine response (IL-12p70) induced by IFN-γ/SAC: general statement, no concentration given.

The subject of test [3] is TNF-α. As to the kind of experiment: TNF-α induction in THP-1 cells by compound alone (ELISA). The following applies: 10 or 100 μg/mL. How it is done:
(§1) Experiments were conducted to determine the role for the MTX residue. Given its location in the capping motif in LAM from M. tuberculosis, it was hypothesized that the residue may function as an immunomodulatory species. Thus, the ability of 3 and 34 to induce or inhibit the production of the TNF-α and IL-12p70 was evaluated using a human monocytic cell line (THP-1). THP-1 cells were re-suspended at a concentration of 5×10^6 cells/mL in RPMI 1640+10% FCS+1% GPS (200 mM penicillin/streptomycin (Sigma UK)+2 mM L-glutamine (Invitrogen)) and plated into a 48-well plate (500 μL/well). Cells were treated with either 3 or 34 (100 μg and 10 μg/mL) or AraLAM or ManLAM (10 μg/mL) for 24 hours and then stimulated for a further 8 hours with a combination of Staphylococcus aureus Cowan (SAC) (Pansorbin™, Calbiochem, UK) and human IFNγ (1000 U/mL, Preprotech). Following incubation, the supernatants were collected and stored in 200 μL aliquots (−80° C.) and analyzed by ELISA (R&D systems) for IL12p70 and TNF-α production.

Test [4] relates to IL-12p70. As to the kind of experiment: IL-12p70 induction in THP-1 cells by compound alone (ELISA). To be noted: 10 or 100 μg/mL. How it is done:
as §1

“Also recorded” adds a separate entry of the source.

On to `CO[C@H]1O[C@H](CO)[C@@H](O)[C@H](O)[C@@H]1O[C@H]1O[C@H](CSC)[C@H](O)[C@H]1O` [Compound 1, Methyl 2-O-(5-deoxy-5-methylthio-α-D-xylofuranosyl)-α-D-mannopyranoside], for which, in test [1], the “induction of TNF-α production in the IFN-γ/SAC assay” value (shortened to “induction … in the IFN-γ/SAC assay”) was “appeared to induce production of TNF-α to varying degrees” and the “inhibition of TNF-α production induced by IFN-γ/SAC” value is on record as “none of these compounds inhibited cytokine induction”. Also, the “inhibition of IL-12p70 production induced by IFN-γ/SAC” value in test [2] is “inhibited induction, but to a degree intermediate between 3 and 34”.
Consider `CO[C@H]1O[C@H](CO)[C@@H](O[C@H]2O[C@H](CSC)[C@H](O)[C@H]2O)[C@H](O)[C@@H]1O` [Compound 3, Methyl 4-O-(5-deoxy-5-methylthio-α-D-xylofuranosyl)-α-D-mannopyranoside], for which, in test [1], the “inhibition of TNF-α production induced by IFN-γ/SAC” value is given as “inhibited TNF-α production to a similar degree as a 5 μM concentration of ManLAM” and the “inhibition of the cytokine response (TNF-α) induced by IFN-γ/SAC” value is “modest levels of inhibition; also recorded: modest inhibitory properties”. For the same compound, the “inhibition of TNF-α response induced by IFN-γ/SAC” value in test [1] (100 μg/mL) is given as “level of inhibition comparable with ManLAM at 10 μg/mL”. Besides, the “induction of TNF-α production” value in test [3] is “Neither 3 nor 34, when tested at concentrations of 10 or 100 μg/mL, significantly induced the production of these two cytokines; also recorded: did not lead to production”. For the same compound, in test [4], the “induction of IL-12p70 production” value was “Neither 3 nor 34, when tested at concentrations of 10 or 100 μg/mL, significantly induced the production of these two cytokines; also recorded: did not lead to production”. In test [2], the “inhibition of IL-12p70 response induced by IFN-γ/SAC” value is “only a very modest effect” and the “inhibition of the cytokine response (IL-12p70) induced by IFN-γ/SAC” value was “modest levels of inhibition; also recorded: modest inhibitory properties”.
`CO[C@H]1O[C@H](CO)[C@H](O)[C@H]1O` [Compound 35, methyl α-D-xylofuranoside, reference compound]: in test [1], the “induction … in the IFN-γ/SAC assay” value is recorded as “appeared to induce production of TNF-α to varying degrees” and the “inhibition of TNF-α production induced by IFN-γ/SAC” value is on record as “none of these compounds inhibited cytokine induction”. For the same compound, the “inhibition of IL-12p70 production induced by IFN-γ/SAC” value in test [2] was “inhibited induction, but to a degree intermediate between 3 and 34”.
Regarding `CO[C@H]1OC(CO)[C@@H](O[C@H]2O[C@H](C[S+](C)[O-])C(O)[C@@H]2O)[C@H](O)C1O` (mixture of isomers) [Compound 34], in test [1], the “inhibition of TNF-α production induced by IFN-γ/SAC” value is reported as “weaker inhibitor than 3” and the “inhibition of the cytokine response (TNF-α) induced by IFN-γ/SAC” value is reported as “modest levels of inhibition; also recorded: modest inhibitory properties”. For the same compound, the “inhibition of TNF-α response induced by IFN-γ/SAC” value in test [1] (10 μg/mL) was “less effective and comparable to AraLAM at 10 μg/mL”. For the same compound, in test [3], the “induction of TNF-α production” value is recorded as “Neither 3 nor 34, when tested at concentrations of 10 or 100 μg/mL, significantly induced the production of these two cytokines; also recorded: did not lead to production”. Moreover, in test [4], the “induction of IL-12p70 production” value was “Neither 3 nor 34, when tested at concentrations of 10 or 100 μg/mL, significantly induced the production of these two cytokines; also recorded: did not lead to production”. Besides, in test [2], the “inhibition of IL-12p70 production induced by IFN-γ/SAC” value was “less active”, the “inhibition of IL-12p70 response induced by IFN-γ/SAC” value is recorded as “only a very modest effect” and the “inhibition of the cytokine response (IL-12p70) induced by IFN-γ/SAC” value is given as “modest levels of inhibition; also recorded: modest inhibitory properties”.
For `CO[C@H]1O[C@H](CO)[C@@H](O[C@@H]2O[C@@H](CSC)[C@@H](O)[C@@H]2O)[C@H](O)[C@@H]1O` [Compound 6, Methyl 4-O-(5-deoxy-5-methylthio-α-L-xylofuranosyl)-α-D-mannopyranoside], in test [1], the “induction … in the IFN-γ/SAC assay” value was “appeared to induce production of TNF-α to varying degrees” and the “inhibition of TNF-α production induced by IFN-γ/SAC” value is listed as “none of these compounds inhibited cytokine induction”. In addition, the “inhibition of IL-12p70 production induced by IFN-γ/SAC” value in test [2] is “inhibited induction, but to a degree intermediate between 3 and 34”.
On to `CO[C@H]1O[C@H](CO)[C@@H](O)[C@H](O[C@H]2O[C@H](CSC)[C@H](O)[C@H]2O)[C@@H]1O` [Compound 2, Methyl 3-O-(5-deoxy-5-methylthio-α-D-xylofuranosyl)-α-D-mannopyranoside], for which, in test [1], the “induction … in the IFN-γ/SAC assay” value is given as “appeared to induce production of TNF-α to varying degrees” and the “inhibition of TNF-α production induced by IFN-γ/SAC” value is “none of these compounds inhibited cytokine induction”. Moreover, in test [2], the “inhibition of IL-12p70 production induced by IFN-γ/SAC” value was “inhibited induction, but to a degree intermediate between 3 and 34”.

(Values after US20070219144A1, “IMMUNOMODULATORY SACCHARIDE COMPOUNDS” (University of Alberta, priority 2006, published 2007).)
